How the values were obtained:
Assay type in all cases: in vivo
[1] = system: sandbur (southem sandbur, Cenchrus echinatus); experiment: Test E greenhouse herbicide test, pre- and postemergence
Outline: (§1)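 For each species, sown seed in silt loam and young plants (2 to 18 cm) in a peat/vermiculite medium were each treated with compound dissolved in surfactant-containing, non-phytotoxic solvent. After 14 to 21 d under greenhouse conditions, effects were visually rated, 100 meaning complete control.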

[2] = system: foxtail, green (green foxtail, Setaria viridis); experiment: as above; settings: Preemergence
Outline: as §1

[3] = system: velvetleaf (Abutilon theophrasti); experiment: as above; settings: Preemergence
Outline: as §1

corn (Zea mays) = experiment: as above
Outline: as §1

[4] = system: dayflower (Virginia (VA) dayflower, Commelina virginica); experiment: as above
Outline: as §1

[5] = system: wild poinsettia (Euphorbia heterophylla); experiment: as above
Outline: as §1

[6] = system: waterhemp (common waterhemp, Amaranthus rudis); experiment: as above
Outline: as §1

[7] = system: Italian ryegrass (Lolium multiflorum); experiment: as above
Outline: as §1

kochia (Kochia scoparia) = experiment: as above; settings: Preemergence
Outline: as §1

[8] = system: nutsedge, yellow (yellow nutsedge, Cyperus esculentus); experiment: as above; settings: Preemergence
Outline: as §1

[9] = system: beggarticks (hairy beggarticks, Bidens pilosa); experiment: as above
Outline: as §1

[10] = system: lambsquarters (Chenopodium album); experiment: as above; settings: Preemergence
Outline: as §1

[11] = system: waterhemp_RES2 (ALS & HPPD resistant common waterhemp, Amaranthus rudis); experiment: Test E greenhouse herbicide test, postemergence
Outline: (§2)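 Resistant waterhemp plants grown in peat/vermiculite potting medium were sprayed postemergence at the 1- to 4-leaf stage (2–18 cm tall). After 14 to 21 d in the greenhouse, injury was visually rated against untreated controls on a 0–100 scale, where 0 is no effect and 100 is complete control.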

[12] = system: waterhemp_RES1 (ALS & Triazine resistant common waterhemp, Amaranthus rudis); experiment: Test E greenhouse herbicide test, postemergence
Outline: as §2

[13] = 62 g ai/ha, Postemergence, scale 0 to 100 (0 no effect, 100 complete control)
[14] = 62 g ai/ha, Preemergence, scale 0 to 100 (0 no effect, 100 complete control)
[15] = 125 g ai/ha, Postemergence, scale 0 to 100 (0 no effect, 100 complete control)
[16] = 125 g ai/ha, Preemergence, scale 0 to 100 (0 no effect, 100 complete control)
[17] = 250 g ai/ha, Postemergence, scale 0 to 100 (0 no effect, 100 complete control)
[18] = Postemergence, 16 g ai/ha, visual, scale 0 no effect to 100 complete control
[19] = Postemergence, 31 g ai/ha, visual, scale 0 no effect to 100 complete control
[20] = Preemergence, 16 g ai/ha, scale 0 to 100, 0 no effect, 100 complete control
[21] = Preemergence, 31 g ai/ha, scale 0 to 100, 0 no effect, 100 complete control
[22] = Preemergence, 250 g ai/ha, visual, scale 0 no effect to 100 complete control
[23] = 62 g ai/ha, scale 0 to 100 (0 no effect, 100 complete control)
[24] = 16 g ai/ha, scale 0 to 100, 0 no effect, 100 complete control
[25] = 31 g ai/ha, scale 0 to 100, 0 no effect, 100 complete control
[26] = 125 g ai/ha, visual, scale 0 no effect to 100 complete control
[27] = 250 g ai/ha, visual, scale 0 no effect to 100 complete control
[28] = 125 g ai/ha, scale 0 to 100 (0 no effect, 100 complete control)
[29] = Preemergence, 125 g ai/ha, visual, scale 0 no effect to 100 complete control
[30] = 16 g ai/ha, visual, scale 0 no effect to 100 complete control
[31] = 31 g ai/ha, visual, scale 0 no effect to 100 complete control
[32] = 250 g ai/ha, scale 0 to 100 (0 no effect, 100 complete control)

Cc1cc(C)c2sc(C)c(-c3c(O)c(C)nn(C)c3=O)c2c1 [Compound 2, 5-hydroxy-2,6-dimethyl-4-(2,5,7-trimethylbenzo[b]thien-3-yl)-3(2H)-pyridazinone]
Plant response rating, Sandbur [1, 13]: 15
Plant response rating, Sandbur [1, 14]: 15
Plant response rating, Sandbur [1, 15]: 20
Plant response rating, Sandbur [1, 16]: 70
Plant response rating, Sandbur [1, 17]: 30
Plant response rating, Sandbur [1, 18]: 5
Plant response rating, Sandbur [1, 19]: 10
Plant response rating, Sandbur [1, 20]: 0
Plant response rating, Sandbur [1, 21]: 15
Plant response rating, Sandbur [1, 22]: 75
Plant response rating, Foxtail, Green [2, 23]: 95
Plant response rating, Foxtail, Green [2, 24]: 0
Plant response rating, Foxtail, Green [2, 25]: 35
Plant response rating, Foxtail, Green [2, 26]: 95
Plant response rating, Foxtail, Green [2, 27]: 98
Plant response rating, Velvetleaf [3, 23]: 60
Plant response rating, Velvetleaf [3, 28]: 80
Plant response rating, Velvetleaf [3, 24]: 0
Plant response rating, Velvetleaf [3, 25]: 30
Plant response rating, Velvetleaf [3, 27]: 90
Plant response rating, Corn (corn (Zea mays); [13]): 0
Plant response rating, Corn (corn (Zea mays); [14]): 0
Plant response rating, Corn (corn (Zea mays); [15]): 5
Plant response rating, Corn (corn (Zea mays); [17]): 5
Plant response rating, Corn (corn (Zea mays); [18]): 0
Plant response rating, Corn (corn (Zea mays); [19]): 0
Plant response rating, Corn (corn (Zea mays); [20]): 0
Plant response rating, Corn (corn (Zea mays); [21]): 0
Plant response rating, Corn (corn (Zea mays); [29]): 0
Plant response rating, Corn (corn (Zea mays); [22]): 0
Plant response rating, Dayflower, VA [4, 13]: 15
Plant response rating, Dayflower, VA [4, 14]: 20
Plant response rating, Dayflower, VA [4, 15]: 65
Plant response rating, Dayflower, VA [4, 17]: 65
Plant response rating, Dayflower, VA [4, 18]: 0
Plant response rating, Dayflower, VA [4, 19]: 20
Plant response rating, Dayflower, VA [4, 20]: 0
Plant response rating, Dayflower, VA [4, 21]: 15
Plant response rating, Dayflower, VA [4, 29]: 25
Plant response rating, Dayflower, VA [4, 22]: 90
Plant response rating, Poinsettia, Wild [5, 13]: 0
Plant response rating, Poinsettia, Wild [5, 14]: 30
Plant response rating, Poinsettia, Wild [5, 15]: 15
Plant response rating, Poinsettia, Wild [5, 16]: 30
Plant response rating, Poinsettia, Wild [5, 17]: 15
Plant response rating, Poinsettia, Wild [5, 18]: 0
Plant response rating, Poinsettia, Wild [5, 19]: 0
Plant response rating, Poinsettia, Wild [5, 20]: 0
Plant response rating, Poinsettia, Wild [5, 21]: 25
Plant response rating, Poinsettia, Wild [5, 22]: 50
Plant response rating, Waterhemp [6, 13]: 75
Plant response rating, Waterhemp [6, 14]: 80
Plant response rating, Waterhemp [6, 15]: 75
Plant response rating, Waterhemp [6, 16]: 85
Plant response rating, Waterhemp [6, 17]: 90
Plant response rating, Waterhemp [6, 18]: 70
Plant response rating, Waterhemp [6, 19]: 70
Plant response rating, Waterhemp [6, 20]: 65
Plant response rating, Waterhemp [6, 21]: 65
Plant response rating, Waterhemp [6, 22]: 98
Plant response rating, Ryegrass, Italian [7, 13]: 50
Plant response rating, Ryegrass, Italian [7, 14]: 98
Plant response rating, Ryegrass, Italian [7, 15]: 65
Plant response rating, Ryegrass, Italian [7, 16]: 100
Plant response rating, Ryegrass, Italian [7, 17]: 75
Plant response rating, Ryegrass, Italian [7, 18]: 20
Plant response rating, Ryegrass, Italian [7, 19]: 30
Plant response rating, Ryegrass, Italian [7, 20]: 50
Plant response rating, Ryegrass, Italian [7, 21]: 95
Plant response rating, Ryegrass, Italian [7, 22]: 100
Plant response rating, Kochia (kochia (Kochia scoparia); [23]): 0
Plant response rating, Kochia (kochia (Kochia scoparia); [24]): 0
Plant response rating, Kochia (kochia (Kochia scoparia); [25]): 0
Plant response rating, Kochia (kochia (Kochia scoparia); [26]): 0
Plant response rating, Kochia (kochia (Kochia scoparia); [27]): 40
Plant response rating, Nutsedge, Yellow [8, 23]: 35
Plant response rating, Nutsedge, Yellow [8, 28]: 65
Plant response rating, Nutsedge, Yellow [8, 24]: 0
Plant response rating, Nutsedge, Yellow [8, 25]: 0
Plant response rating, Nutsedge, Yellow [8, 27]: 70
Plant response rating, Beggarticks [9, 13]: 100
Plant response rating, Beggarticks [9, 14]: 100
Plant response rating, Beggarticks [9, 15]: 100
Plant response rating, Beggarticks [9, 17]: 100
Plant response rating, Beggarticks [9, 18]: 85
Plant response rating, Beggarticks [9, 19]: 95
Plant response rating, Beggarticks [9, 20]: 90
Plant response rating, Beggarticks [9, 21]: 100
Plant response rating, Beggarticks [9, 29]: 100
Plant response rating, Beggarticks [9, 22]: 100
Plant response rating, Lambsquarters [10, 23]: 98
Plant response rating, Lambsquarters [10, 24]: 50
Plant response rating, Lambsquarters [10, 25]: 100
Plant response rating, Lambsquarters [10, 26]: 98
Plant response rating, Lambsquarters [10, 27]: 100
Plant response rating, Waterhemp_RES2 [11, 30]: 0
Plant response rating, Waterhemp_RES2 [11, 31]: 0
Plant response rating, Waterhemp_RES2 [11, 23]: 5
Plant response rating, Waterhemp_RES2 [11, 28]: 5
Plant response rating, Waterhemp_RES2 [11, 32]: 60
Plant response rating, Waterhemp_RES1 [12, 30]: 65
Plant response rating, Waterhemp_RES1 [12, 31]: 70
Plant response rating, Waterhemp_RES1 [12, 23]: 70
Plant response rating, Waterhemp_RES1 [12, 28]: 70
Plant response rating, Waterhemp_RES1 [12, 32]: 100

From patent publication US10597388B2, “Pyridazinone herbicides” (FMC CORPORATION, priority 2014, dated 2020)
